Reference: ChEMBL document CHEMBL3992559, “Human carbonic anhydrase inhibitory profile of mono- and bis-sulfonamides synthesized via a direct sulfochlorination of 3- and 4-(hetero)arylisoxazol-5-amine scaffolds” (Bioorg Med Chem, 2017)

Assays:
Carbonic anhydrase 4 = Carbonic anhydrase 4 (Homo sapiens, UniProt P22748); test: Inhibition of recombinant human carbonic anhydrase-4 assessed as reduction in enzyme-catalyzed hydration activity using CO2 as substrate preincubated for 15 mins followed substrate addition measured after 10 to 100 sec by phenol red dye based stopped flow assay
Carbonic anhydrase 4, sequence (P22748 whole entry): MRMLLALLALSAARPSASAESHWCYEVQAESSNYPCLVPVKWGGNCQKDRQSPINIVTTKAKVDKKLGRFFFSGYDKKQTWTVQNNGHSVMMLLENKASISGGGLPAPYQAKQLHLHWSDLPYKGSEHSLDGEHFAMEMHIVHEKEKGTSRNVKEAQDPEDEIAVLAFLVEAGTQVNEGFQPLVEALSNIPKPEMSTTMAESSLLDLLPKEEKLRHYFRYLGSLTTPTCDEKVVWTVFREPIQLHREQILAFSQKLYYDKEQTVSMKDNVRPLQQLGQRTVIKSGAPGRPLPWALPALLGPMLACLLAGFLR

Carbonic anhydrase 7 = Carbonic anhydrase 7 (Homo sapiens, UniProt P43166); test: Inhibition of recombinant human carbonic anhydrase-7 assessed as reduction in enzyme-catalyzed hydration activity using CO2 as substrate preincubated for 15 mins followed substrate addition measured after 10 to 100 sec by phenol red dye based stopped flow assay
Carbonic anhydrase 7, sequence (P43166 whole entry): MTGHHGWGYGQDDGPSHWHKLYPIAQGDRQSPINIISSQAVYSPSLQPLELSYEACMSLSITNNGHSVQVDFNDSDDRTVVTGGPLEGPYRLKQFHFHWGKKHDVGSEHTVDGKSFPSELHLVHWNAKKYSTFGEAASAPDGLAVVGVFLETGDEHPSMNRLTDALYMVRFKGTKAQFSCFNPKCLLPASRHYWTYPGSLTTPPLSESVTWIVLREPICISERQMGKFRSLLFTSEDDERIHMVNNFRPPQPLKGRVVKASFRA

Carbonic anhydrase 1 = Carbonic anhydrase 1 (Homo sapiens, UniProt P00915); test: Inhibition of recombinant human carbonic anhydrase-1 assessed as reduction in enzyme-catalyzed hydration activity using CO2 as substrate preincubated for 15 mins followed substrate addition measured after 10 to 100 sec by phenol red dye based stopped flow assay
Carbonic anhydrase 1, sequence (P00915 whole entry): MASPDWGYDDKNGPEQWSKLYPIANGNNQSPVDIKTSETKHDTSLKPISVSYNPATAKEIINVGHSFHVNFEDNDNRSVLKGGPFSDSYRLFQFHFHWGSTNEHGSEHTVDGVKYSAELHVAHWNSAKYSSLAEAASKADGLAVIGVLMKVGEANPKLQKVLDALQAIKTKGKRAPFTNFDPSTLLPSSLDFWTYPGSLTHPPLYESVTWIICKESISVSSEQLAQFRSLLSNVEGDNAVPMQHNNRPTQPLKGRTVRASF

Carbonic anhydrase 2 = Carbonic anhydrase 2 (Homo sapiens, UniProt P00918); test: Inhibition of recombinant human carbonic anhydrase-2 assessed as reduction in enzyme-catalyzed hydration activity using CO2 as substrate preincubated for 15 mins followed substrate addition measured after 10 to 100 sec by phenol red dye based stopped flow assay

Measured: Ki

COc1ccc(-c2c(C)noc2NC(C)=O)cc1S(N)(=O)=O
> 10 µM: Carbonic anhydrase 4 | Carbonic anhydrase 7 | Carbonic anhydrase 1 | Carbonic anhydrase 2

COc1ccc(S(N)(=O)=O)c(-c2noc(N)c2S(N)(=O)=O)c1
> 10 µM: Carbonic anhydrase 4 | Carbonic anhydrase 7 | Carbonic anhydrase 1

CC(=O)Nc1onc(C)c1-c1ccc(S(N)(=O)=O)c(C)c1
> 10 µM: Carbonic anhydrase 4

COc1ccc(-c2cc(NC(C)=O)on2)cc1S(N)(=O)=O
> 10 µM: Carbonic anhydrase 4 | Carbonic anhydrase 7 | Carbonic anhydrase 1 | Carbonic anhydrase 2

CC(=O)Nc1cc(-c2cc(S(N)(=O)=O)c(C)s2)no1
> 10 µM: Carbonic anhydrase 4 | Carbonic anhydrase 7 | Carbonic anhydrase 1

CC(=O)Nc1cc(-c2ccc(C)c(S(N)(=O)=O)c2)no1
> 10 µM: Carbonic anhydrase 4 | Carbonic anhydrase 1

COc1ccc(-c2noc(N)c2S(N)(=O)=O)cc1S(N)(=O)=O
> 10 µM: Carbonic anhydrase 7 | Carbonic anhydrase 1

COc1ccc(S(N)(=O)=O)c(-c2c(C)noc2NC(C)=O)c1
> 10 µM: Carbonic anhydrase 4 | Carbonic anhydrase 7 | Carbonic anhydrase 1 | Carbonic anhydrase 2

COc1ccc(S(N)(=O)=O)c(-c2cc(NC(C)=O)on2)c1
> 10 µM: Carbonic anhydrase 4 | Carbonic anhydrase 7 | Carbonic anhydrase 1 | Carbonic anhydrase 2
